# Key:
# Format in all cases: in vivo, Festuca arundinacea
# [1] = system: cloned survivors from Coronado, Apache II and Tomahawk; assay: Glyphosate screening of vegetative clones in cell pack planting flats; details: 1 quart per acre glyphosate with WA-100, clones in cell pack planting flats, sprayed 1 month after cloning
# [2] = system: seedlings, progenies of the 23 5RU clones; assay: Greenhouse glyphosate screening of seedlings; details: one quart per acre, sprayed at the three to four leaf stage, 74 out of 150
# Wolfpack tall fescue = assay: Glyphosate tolerance field trial, turf seeded fall 1998 near Hubbard, Oreg.; details: for Herbicide damage: scale 1-9, 9=no glyphosate damage; for Summer Stress: scale 1-9; for Turf quality (no herbicide): scale 1-9, 9=ideal quality
# Protocol: (§1) The following tables show examples of field trials in which the glyphosate resistance characteristics of the Tomahawk RT variety were examined and compared to currently used tall fescue grass varieties. Grasses were seeded in the fall of 1998 near Hubbard, Oreg. and rated between November 1998 and September 1999.
# (§2) 2, 1999. The score ratings are based on a scale of 1 to 9. For herbicide damage: 9 =no glyphosate damage; 8-7=10-20% yellowing; 6-5=30-40% yellowing with minor growth retardation; 4-3=50-60% yellowing with growth retardation; 2-1=70-90% yellowing with dead turf. For turf quality: 9=best turf quality, 0=dead turf.
# (§3) Grasses were sprayed with 1 pint per acre glyphosate on Nov. 19, 1998 and ½ pint (8 oz.) per acre on Mar. 2, 1999. The effect of the herbicide application on turf quality and on glyphosate damage is shown, using a scale of 1 to 9 as described for Table 3 (9: ideal quality; no disease; no glyphosate damage). In addition, the percent of damage due to herbicide application (which indicates yellowing, stunting, and death) is shown.
# Kentucky 31 tall fescue = assay: as above; details: for Herbicide damage: scale 1-9, 9=no glyphosate damage; for Summer Stress: scale 1-9; for Turf quality (no herbicide): scale 1-9, 9=ideal quality
# Protocol: as §1, §2, §3
# Tomahawk RT tall fescue = assay: as above; details: for Herbicide damage: scale 1-9, 9=no glyphosate damage; for Summer Stress: scale 1-9; for Turf quality (no herbicide): scale 1-9, 9=ideal quality
# Protocol: as §1, §2, §3
# Tomahawk E tall fescue = assay: as above; details: for Herbicide damage: scale 1-9, 9=no glyphosate damage; for Summer Stress: scale 1-9; for Turf quality (no herbicide): scale 1-9, 9=ideal quality
# Protocol: as §1, §2, §3
# 5HU tall fescue = assay: as above; details: for Herbicide damage: scale 1-9, 9=no glyphosate damage; for Summer Stress: scale 1-9; for Turf quality (no herbicide): scale 1-9, 9=ideal quality
# Protocol: as §1, §2, §3
# Tar Heel tall fescue = assay: as above; details: for Herbicide damage: scale 1-9, 9=no glyphosate damage; for Summer Stress: scale 1-9; for Turf quality (no herbicide): scale 1-9, 9=ideal quality
# Protocol: as §1, §2, §3
# Pure Gold tall fescue = assay: as above; details: for Herbicide damage: scale 1-9, 9=no glyphosate damage; for Summer Stress: scale 1-9; for Turf quality (no herbicide): scale 1-9, 9=ideal quality
# Protocol: as §1, §2, §3
# [3] = 1/2 pint (8 oz.) per acre sprayed Mar. 2, 1999, rated 1 April
# [4] = 1/2 pint (8 oz.) per acre sprayed Mar. 2, 1999, rated 20 April
# [5] = 1/2 pint (8 oz.) per acre sprayed Mar. 2, 1999, rated 24 Sept
# [6] = 1 pint per acre Nov. 19, 1998 and 1/2 pint per acre Mar. 2, 1999, rated 1 Apr
# [7] = 1 pint per acre Nov. 19, 1998 and 1/2 pint per acre Mar. 2, 1999, rated 1 May
# [8] = 1 pint per acre Nov. 19, 1998 and 1/2 pint per acre Mar. 2, 1999, rated 20 Apr
# [9] = 1 pint per acre Nov. 19, 1998 and 1/2 pint per acre Mar. 2, 1999, rated 24 Sept
# [10] = 1 pint per acre sprayed Nov. 19, 1998, rated 2 Mar
# [11] = 1 pint per acre sprayed Nov. 19, 1998, rated 26 Dec, % damage (yellowing, stunting, death)
# [12] = 1 pint per acre sprayed Nov. 19, 1998, rated 26 Jan
# [13] = 1/2 pint per acre of glyphosate herbicide (41% w/v glyphosate), field, January through September 1999
# [14] = 1 pint per acre of agricultural formulation (about 0.056 g per square meter glyphosate)
structure (smiles),measurement,setting,value
"O=C(O)CNCP(=O)(O)O [Glyphosate, N-(phosphonomethyl) glycine]",survivors,[1],5%
same,seedlings survived,[2],50%
same,Herbicide damage,Wolfpack tall fescue; [3],4.0
same,Herbicide damage,Wolfpack tall fescue; [4],2.8
same,Summer Stress,Wolfpack tall fescue; [5],5.5
same,Herbicide damage %,Wolfpack tall fescue; [6],41.3%
same,Turf quality (no herbicide),Wolfpack tall fescue; [6],3.3
same,Turf quality (no herbicide),Wolfpack tall fescue; [7],4.8
same,Turf quality (no herbicide),Wolfpack tall fescue; [8],4.5
same,Summer Stress,Wolfpack tall fescue; [9],7.8
same,Herbicide damage,Wolfpack tall fescue; [10],3.3
same,Herbicide damage %,Wolfpack tall fescue; [11],52.5%
same,Turf quality (no herbicide),Wolfpack tall fescue; [12],3.5
same,Herbicide damage,Wolfpack tall fescue; [12],3.3
same,Herbicide damage,Kentucky 31 tall fescue; [3],3.3
same,Herbicide damage,Kentucky 31 tall fescue; [4],3.8
same,Summer Stress,Kentucky 31 tall fescue; [5],4.5
same,Herbicide damage %,Kentucky 31 tall fescue; [6],33.8%
same,Turf quality (no herbicide),Kentucky 31 tall fescue; [6],2.0
same,Turf quality (no herbicide),Kentucky 31 tall fescue; [7],4.0
same,Turf quality (no herbicide),Kentucky 31 tall fescue; [8],3.3
same,Summer Stress,Kentucky 31 tall fescue; [9],5.8
same,Herbicide damage,Kentucky 31 tall fescue; [10],2.8
same,Herbicide damage %,Kentucky 31 tall fescue; [11],75.0%
same,Turf quality (no herbicide),Kentucky 31 tall fescue; [12],2.0
same,Herbicide damage,Kentucky 31 tall fescue; [12],2.0
same,Herbicide damage,Tomahawk RT tall fescue; [3],7.5
same,Herbicide damage,Tomahawk RT tall fescue; [4],7.3
same,Summer Stress,Tomahawk RT tall fescue; [5],6.5
same,reduction in growth rate,Tomahawk RT tall fescue; [13],no substantial reduction in growth rate
same,yellowing of the grass,Tomahawk RT tall fescue; [13],only minor amounts of yellowing
same,Herbicide damage %,Tomahawk RT tall fescue; [6],72.5%
same,Turf quality (no herbicide),Tomahawk RT tall fescue; [6],6.3
same,Turf quality (no herbicide),Tomahawk RT tall fescue; [7],6.5
same,Turf quality (no herbicide),Tomahawk RT tall fescue; [8],6.0
same,Summer Stress,Tomahawk RT tall fescue; [9],7.8
same,recovery of grass plants not killed,Tomahawk RT tall fescue; [14],complete recovery
same,yellowing and retardation of plant growth,Tomahawk RT tall fescue; [14],more yellowing of the grasses and a substantial retardation of plant growth
same,Herbicide damage,Tomahawk RT tall fescue; [10],5.3
same,Herbicide damage %,Tomahawk RT tall fescue; [11],21.3%
same,Turf quality (no herbicide),Tomahawk RT tall fescue; [12],4.3
same,Herbicide damage,Tomahawk RT tall fescue; [12],5.3
same,sensitivity to glyphosate herbicide applications,Tomahawk RT tall fescue; ambient temperature of the plants below about 32° C.,more sensitive
same,sensitivity to glyphosate,"Tomahawk RT tall fescue; applied during the seedling stage, within the first 60-days of planting",more sensitive
same,tolerated application of agricultural formulations of glyphosate herbicide,"Tomahawk RT tall fescue; depending on time of year, age of the plants and environmental conditions",up to 1 pint per acre
same,Herbicide damage,Tomahawk E tall fescue; [3],4.3
same,Herbicide damage,Tomahawk E tall fescue; [4],3.8
same,Summer Stress,Tomahawk E tall fescue; [5],6.3
same,Herbicide damage %,Tomahawk E tall fescue; [6],36.3%
same,Turf quality (no herbicide),Tomahawk E tall fescue; [6],2.8
same,Turf quality (no herbicide),Tomahawk E tall fescue; [7],4.5
same,Turf quality (no herbicide),Tomahawk E tall fescue; [8],3.5
same,Summer Stress,Tomahawk E tall fescue; [9],7.3
same,Herbicide damage,Tomahawk E tall fescue; [10],2.3
same,Herbicide damage %,Tomahawk E tall fescue; [11],65.0%
same,Turf quality (no herbicide),Tomahawk E tall fescue; [12],2.8
same,Herbicide damage,Tomahawk E tall fescue; [12],2.5
same,Herbicide damage,5HU tall fescue; [3],5.3
same,Herbicide damage,5HU tall fescue; [4],4.5
same,Summer Stress,5HU tall fescue; [5],6.3
same,Herbicide damage %,5HU tall fescue; [6],33.8%
same,Turf quality (no herbicide),5HU tall fescue; [6],2.8
same,Turf quality (no herbicide),5HU tall fescue; [7],4.8
same,Turf quality (no herbicide),5HU tall fescue; [8],3.8
same,Summer Stress,5HU tall fescue; [9],7.0
same,Herbicide damage,5HU tall fescue; [10],3.5
same,Herbicide damage %,5HU tall fescue; [11],45.0%
same,Turf quality (no herbicide),5HU tall fescue; [12],3.3
same,Herbicide damage,5HU tall fescue; [12],3.8
same,Herbicide damage,Tar Heel tall fescue; [3],5.0
same,Herbicide damage,Tar Heel tall fescue; [4],5.0
same,Summer Stress,Tar Heel tall fescue; [5],7.0
same,Herbicide damage %,Tar Heel tall fescue; [6],40.0%
same,Turf quality (no herbicide),Tar Heel tall fescue; [6],3.0
same,Turf quality (no herbicide),Tar Heel tall fescue; [7],5.0
same,Turf quality (no herbicide),Tar Heel tall fescue; [8],4.0
same,Summer Stress,Tar Heel tall fescue; [9],7.5
same,Herbicide damage,Tar Heel tall fescue; [10],3.3
same,Herbicide damage %,Tar Heel tall fescue; [11],76.3%
same,Turf quality (no herbicide),Tar Heel tall fescue; [12],2.0
same,Herbicide damage,Tar Heel tall fescue; [12],2.3
same,Herbicide damage,Pure Gold tall fescue; [3],5.3
same,Herbicide damage,Pure Gold tall fescue; [4],5.5
same,Summer Stress,Pure Gold tall fescue; [5],5.3
same,Herbicide damage %,Pure Gold tall fescue; [6],41.3%
same,Turf quality (no herbicide),Pure Gold tall fescue; [6],3.8
same,Turf quality (no herbicide),Pure Gold tall fescue; [7],4.8
same,Turf quality (no herbicide),Pure Gold tall fescue; [8],3.8
same,Summer Stress,Pure Gold tall fescue; [9],7.3
same,Herbicide damage,Pure Gold tall fescue; [10],3.3
same,Herbicide damage %,Pure Gold tall fescue; [11],33.8%
same,Turf quality (no herbicide),Pure Gold tall fescue; [12],3.5
same,Herbicide damage,Pure Gold tall fescue; [12],4.0

# Reference: US6423887B1, “Glyphosate tolerant fescue grass variety” (Pure Seed Testing, Inc., priority 2001, dated 2002)
